Measured values as given in ChEMBL document CHEMBL4699537, “Chalcones as Modulators of Neutrophil Oxidative Burst under Physiological and High Glucose Conditions” (J Nat Prod, 2020).
Each block holds one compound with its values, some of them ahead of it.

How the values were obtained:
Neutrophil [1] = assay: Effect on cell viability in human neutrophils assessed as death cell at 100 uM in presence of 5.5 mM glucose after 1 hr by Propidium staining based flow cytometric analysis (reference value: 0.5 +/- 0.07 %)
Neutrophil [2] = assay: Effect on cell viability in human neutrophils assessed as death cell at 100 uM in presence of 30 mM glucose after 1 hr by Propidium staining based flow cytometric analysis (reference value: 0.8 +/- 0.13 %)
Neutrophil [3] = assay: Effect on cell viability in human neutrophils assessed as decrease in cell viability at 50 uM after 1 hr by Propidium staining based flow cytometric analysis
[4] = Inhibition of PMA-induce ROS/RNS generation in human neutrophils measured up to 30 mins in presence of 5.5 mM glucose by luminol-amplified chemiluminescence method; format: functional, tissue-based; conditions: Neutrophil, 0.5 h
[5] = Inhibition of PMA-induce ROS/RNS generation in human neutrophils measured up to 30 mins in presence of 30 mM glucose by luminol-amplified chemiluminescence method; format: functional, tissue-based; conditions: Neutrophil, 0.5 h
[6] = Ratio of IC50 for inhibition of PMA-induce ROS/RNS generation in human neutrophils measured up to 30 mins in presence of 30 mM glucose to IC50 for inhibition of PMA-induce ROS/RNS generation in human neutrophils measured up to 30 mins in presence of 5.5 mM glucose; format: functional, Neutrophil
Neutrophil [7] = assay: Effect on cell viability in human neutrophils assessed as decrease in cell viability at 3.1 uM after 1 hr by Propidium staining based flow cytometric analysis
[8] = Inhibition of PMA-induce ROS/RNS generation in human neutrophils at 6.3 uM measured up to 30 mins in presence of 5.5 mM glucose by luminol-amplified chemiluminescence method relative to control; format: functional, Neutrophil; conditions: time min <=30
[9] = Inhibition of PMA-induce ROS/RNS generation in human neutrophils at 3.1 uM measured up to 30 mins in presence of 30 mM glucose by luminol-amplified chemiluminescence method relative to control; format: functional, Neutrophil; conditions: time min <=30
Neutrophil [10] = assay: Effect on cell viability in human neutrophils assessed as decrease in cell viability at 25 uM after 1 hr by Propidium staining based flow cytometric analysis
Neutrophil [11] = assay: Effect on cell viability in human neutrophils assessed as decrease in cell viability at 6.3 uM after 1 hr by Propidium staining based flow cytometric analysis
[12] = Inhibition of PMA-induce ROS/RNS generation in human neutrophils at 6.3 uM measured up to 30 mins in presence of 30 mM glucose by luminol-amplified chemiluminescence method relative to control; format: functional, Neutrophil; conditions: time min <=30
Neutrophil [13] = assay: Effect on cell viability in human neutrophils assessed as decrease in cell viability at 12.5 uM after 1 hr by Propidium staining based flow cytometric analysis
Neutrophil [14] = assay: Effect on cell viability in human neutrophils assessed as decrease in cell viability at 100 uM after 1 hr by Propidium staining based flow cytometric analysis
[15] = Inhibition of PMA-induce ROS/RNS generation in human neutrophils at 25 uM measured up to 30 mins in presence of 5.5 mM glucose by luminol-amplified chemiluminescence method relative to control; format: functional, Neutrophil; conditions: time min <=30
[16] = Inhibition of PMA-induce ROS/RNS generation in human neutrophils at 25 uM measured up to 30 mins in presence of 30 mM glucose by luminol-amplified chemiluminescence method relative to control; format: functional, Neutrophil; conditions: time min <=30
[17] = Inhibition of PMA-induce ROS/RNS generation in human neutrophils at 12.5 uM measured up to 30 mins in presence of 5.5 mM glucose by luminol-amplified chemiluminescence method relative to control; format: functional, Neutrophil; conditions: time min <=30
[18] = Inhibition of PMA-induce ROS/RNS generation in human neutrophils at 12.5 uM measured up to 30 mins in presence of 30 mM glucose by luminol-amplified chemiluminescence method relative to control; format: functional, Neutrophil; conditions: time min <=30
Neutrophil [19] = assay: Effect on cell viability in human neutrophils assessed as death cell at 6.3 uM in presence of 5.5 mM glucose after 1 hr by Propidium staining based flow cytometric analysis (reference value: 0.5 +/- 0.07 %)
Neutrophil [20] = assay: Effect on cell viability in human neutrophils assessed as death cell at 6.3 uM in presence of 30 mM glucose after 1 hr by Propidium staining based flow cytometric analysis (reference value: 0.8 +/- 0.13 %)
[21] = Inhibition of PMA-induce NET production in human neutrophils at 50 uM incubated for 30 mins in presence of 30 mM glucose by SytoxGreen staining based fluorescence assay relative to control; format: functional; conditions: Neutrophil, 0.5 h
Neutrophil [22] = assay: Inhibition of PMA-induce NET production in human neutrophils incubated for 30 mins in presence of 30 mM glucose by SytoxGreen staining based fluorescence assay; format: functional, tissue-based
[23] = Inhibition of PMA-induce ROS/RNS generation in human neutrophils at 3.1 uM measured up to 30 mins in presence of 5.5 mM glucose by luminol-amplified chemiluminescence method relative to control; format: functional, Neutrophil; conditions: time min <=30

SMILES: O=C(/C=C/c1ccccc1)c1ccccc1 [CHALCONE]
Activity (Neutrophil [1]): 0.6% | Activity (Neutrophil [2]): 5% | Activity (Neutrophil [3]): Non-Toxic | IC50 [4]: 13 µM | IC50 [5]: 27 µM | Ratio IC50 [6]: 2

SMILES: COc1cc(O)c(C(=O)/C=C/c2cc(OC)c(OC)c(OC)c2)c(OC)c1
Activity (Neutrophil [7]): Non-Toxic | Imax [8]: 25% | Imax [9]: 18%

SMILES: O=C(/C=C/c1ccc(O)cc1O)c1ccccc1
Activity (Neutrophil [10]): Non-Toxic | IC50 [4]: 13 µM | IC50 [5]: 12 µM

SMILES: COc1ccccc1/C=C/C(=O)c1ccccc1O
Activity (Neutrophil [11]): Non-Toxic | Imax [8]: 50% | Imax [12]: 34%

SMILES: Cc1cc(C)c(/C=C/C(=O)c2ccccc2O)c(C)c1
Activity (Neutrophil [7]): Non-Toxic | Imax [8]: 26% | Imax [9]: 25%

SMILES: COc1ccc(/C=C/C(=O)c2ccc(O)cc2O)cc1OC
Activity (Neutrophil [13]): Non-Toxic | IC50 [4]: 6.4 µM | IC50 [5]: 7 µM

SMILES: COc1cc(O)c(C(=O)/C=C/c2ccc(OC)c(OC)c2)c(OC)c1
Activity (Neutrophil [14]): Non-Toxic | IC50 [4]: 78 µM | IC50 [5]: 74 µM

SMILES: O=C(/C=C/c1cccc(O)c1)c1ccccc1 [3-HYDROXY CHALCONE]
Activity (Neutrophil [14]): Non-Toxic | IC50 [4]: 27 µM | IC50 [5]: 22.3 µM

SMILES: COc1ccc(/C=C/C(=O)c2ccccc2O)cc1
Activity (Neutrophil [10]): Non-Toxic | Imax [15]: 50% | Imax [16]: 32%

SMILES: COc1ccc(/C=C/C(=O)c2ccccc2O)cc1OC
Activity (Neutrophil [3]): Non-Toxic | IC50 [4]: 6.4 µM | IC50 [5]: 15 µM | Ratio IC50 [6]: 2

SMILES: O=C(/C=C/c1ccccc1O)c1ccccc1
Activity (Neutrophil [3]): Non-Toxic | IC50 [4]: 6.7 µM | IC50 [5]: 5 µM

SMILES: O=C(/C=C/c1ccc(Cl)cc1Cl)c1ccccc1O
Activity (Neutrophil [13]): Non-Toxic | Imax [17]: 30% | Imax [18]: 28%

SMILES: COc1ccc(/C=C/C(=O)c2ccccc2)cc1OC
Activity (Neutrophil [14]): Non-Toxic | IC50 [4]: 15 µM | IC50 [5]: 20 µM

SMILES: O=C(/C=C/c1ccc(O)cc1)c1ccccc1 [4-HYDROXYCHALCONE]
Activity (Neutrophil [3]): Non-Toxic | IC50 [4]: 8.8 µM | IC50 [5]: 11.6 µM

SMILES: COc1ccc(/C=C/C(=O)c2ccc(O)cc2O)cc1
Activity (Neutrophil [13]): Non-Toxic | Imax [17]: 46% | Imax [18]: 44%

SMILES: O=C(/C=C/c1ccccc1O)c1ccccc1O
Activity (Neutrophil [10]): Non-Toxic | IC50 [4]: 5.8 µM | IC50 [5]: 5.8 µM

SMILES: COc1ccc(/C=C/C(=O)c2c(O)cc(OC)cc2OC)cc1 [FLAVOKAWAIN A]
Activity (Neutrophil [7]): Non-Toxic | Imax [23]: 13% | Imax [9]: 19%

Second part, led by results:

IC50 [4]: 1.6 µM | IC50 [5]: 1.5 µM
SMILES: O=C(/C=C/c1ccc(O)cc1)c1ccccc1O
Activity (Neutrophil [3]): Non-Toxic

IC50 [4]: 3 µM | IC50 [5]: 5.7 µM
SMILES: COc1cccc(/C=C/C(=O)c2ccccc2O)c1
Activity (Neutrophil [10]): Non-Toxic | Ratio IC50 [6]: 2

IC50 [4]: 2.9 µM | IC50 [5]: 3 µM
SMILES: O=C(/C=C/c1ccc(O)cc1O)c1ccc(O)cc1O
Activity (Neutrophil [13]): Non-Toxic

IC50 [4]: 5.4 µM | IC50 [5]: 5.3 µM
SMILES: O=C(/C=C/c1ccc(Cl)cc1)c1ccccc1 [4-CHLORO CHALCONE]
Activity (Neutrophil [13]): Non-Toxic

IC50 [4]: 3.4 µM | IC50 [5]: 3 µM
SMILES: COc1cc(/C=C/C(=O)c2ccccc2O)cc(OC)c1OC
Activity (Neutrophil [3]): Non-Toxic

IC50 [4]: 1 µM | IC50 [5]: 2 µM
SMILES: COc1cc(/C=C/C(=O)c2ccccc2O)ccc1O
Activity (Neutrophil [19]): 0.4% | Activity (Neutrophil [20]): 0.4% | Activity (Neutrophil [11]): Non-Toxic

IC50 [4]: 4.4 µM | IC50 [5]: 5 µM
SMILES: O=C(/C=C/c1ccc(O)c(O)c1)c1c(O)cc(O)cc1O [3,4,2',4',6'-PENTAHYDROXYCHALCONE]
Activity (Neutrophil [3]): Non-Toxic | inhibition at 50 µM [21]: 48% | inhibition (Neutrophil [22]): Dose-dependent effect

IC50 [4]: 2.8 µM
SMILES: Cc1cccc(/C=C/C(=O)c2ccccc2O)c1
Activity (Neutrophil [13]): Non-Toxic | Imax [18]: 47% | Ratio IC50 [6]: 2
